According to patent publication US20100190824A1, “Novel Substituted Piperidones as HSP Inducers” (priority 2007, published 2010):

Key:
HSP70b mRNA = assay: Cellular expression of HSP-70 mRNA in primary mixed neurons (real-time PCR); type: cell-based; conditions: fold induction of HSP70b mRNA relative to vehicle treated control; primary mixed neurons from neonatal rat cerebellum; 4 hours; normalized to 18S rRNA
Protocol: Experiments set forth in this section were conducted to determine whether the compounds of the present invention are able to elevate the expression of HSP-70 gene in cells.
Hela cell-line or primary mixed neurons derived from neonatal rat cerebellum were employed. Induction was carried out for the indicated dose(s) for 4 hours duration and total RNA was isolated. Expression of HSP70b mRNA along-with expression of 18S rRNA was monitored by real-time PCR. HSP70b mRNA expression was normalized relative to the expression of 18S rRNA.
The results for test compounds were expressed as fold induction of HSP-70 mRNA relative to vehicle treated control and are as shown in Table 2 & 3.

TNF-α mRNA = assay: Inhibition of LPS-induced TNF-α expression in PMA differentiated THP-1 cells; type: cell-based, Human; conditions: LPS (1 ug/ml) and compound for 4 hours, LPS alone as 100%
Protocol: The purpose of the present study was to determine the inhibition of lipopolysaccharide(LPS)-induced TNF-α expression in phorbol merstyl ester (PMA) differentiated THP-1 cells.
Human monocytic leukaemia cell line (THP-1), differentiated into macrophage-like cells by PMA treatment was employed. Differentiated cells were treated with either LPS (1 ug/ml) alone or with LPS (1 ug/ml) and compound for 4 hours. Total RNA was isolated and expression of TNF-αmRNA along-with expression of 18S rRNA was monitored by real-time PCR. TNF-α mRNA expression was normalized relative to the expression of 18S rRNA Considering TNF-α expression for cells treated with LPS alone as 100%; the results for test compounds were expressed as % inhibition of TNF-α expression and are as shown in Table 4

| Compound | HSP Induction in mixed neuron (HSP70b mRNA) | TNF-alpha Inhibition (TNF-α mRNA) |
| --- | --- | --- |
| COC(=O)N1CC(=Cc2ccccn2)C(=O)C(C)(C)C1Cc1ccc(OC)cc1 (stereo not shown) [Compound 52, 2-(4-Methoxy-benzyl)-3,3-dimethyl-4-oxo-5-[1-pyridin-2-yl-methylidene]-piperidine-1-carboxylic acid methyl ester] | (++) (5-8 fold) | (++++) (>80%) |
| COc1ccc(CC2N(C(=S)Nc3ccccc3)CC(=Cc3ccccn3)C(=O)C2(C)C)cc1 (stereo not shown) [Compound 60, 2-(4-Methoxy-benzyl)-3,3-dimethyl-4-oxo-5-[1-pyridin-2-yl-methylidene]-piperidine-1-carbothioic acid phenylamide] | (++++) (>16 fold) | (+++) (61-80%) |
| CSc1ccc(C2C(=Cc3ccccn3)C(=O)C(C)(C)CN2Cc2cccs2)cc1 (stereo not shown) [Compound 61, 5,5-Dimethyl-2-(4-methylsulfanyl-phenyl)-3-[1-pyridin-2-yl-methylidene]-1-thiophen-2-ylmethyl-piperidin-4-one] | (++++) (>16 fold) | (+++) (61-80%) |
| COc1ccc(CN2CC(C)(C)C(=O)C(=Cc3cccc(N4CCOCC4)n3)C2c2ccc(C(F)(F)F)cc2)cc1 (stereo not shown) [Compound 63, 1-(4-Methoxy-benzyl)-5,5-dimethyl-3-[1-(6-morpholin-4-yl-pyridin-2-yl)-methylidene]-2-(4-trifluoromethyl-phenyl)-piperidin-4-one] | (++) (5-8 fold) | (++) (41-60%) |
| Cc1cc(N2CC(C)(C)C(=O)C(=Cc3cccc(N4CCOCC4)n3)C2c2ccccc2)no1 (stereo not shown) [Compound 65, 5,5-Dimethyl-1-(5-methyl-isoxazol-3-yl)-3-[1-(6-morpholin-4-yl-pyridin-2-yl)-methylidene]-2-phenyl-piperidin-4-one] | (+++) (9-16 fold) | (+++) (61-80%) |
| CC1(C)CN(CCc2cccs2)CC(=Cc2cccc(N3CCOCC3)n2)C1=O [Compound 69, 3,3-Dimethyl-5-[1-(6-morpholin-4-yl-pyridin-2-yl)-methylidene]-1-(2-thiophen-2-yl-ethyl)-piperidin-4-one] | (++++) (>16 fold) | (+++) (61-80%) |
| CC1(C)CN(CCc2cccs2)CC(=Cc2ccccn2)C1=O [Compound 79, 3,3-Dimethyl-5-[1-pyridin-2-yl-methylidene]-1-(2-thiophen-2-yl-ethyl)-piperidin-4-one] | (+++) (9-16 fold) | (++++) (>80%) |
| CC1(C)CN(Cc2ccco2)C(c2ccccc2)C(=Cc2ccccn2)C1=O (stereo not shown) [Compound 82, 1-Furan-2-ylmethyl-5,5-dimethyl-2-phenyl-3-[1-pyridin-2-yl-methylidene]-piperidin-4-one] | (+++) (9-16 fold) | (++++) (>80%) |
| CN1CC(C)(C)C(=O)C(=Cc2ccccn2)C1c1ccccc1 (stereo not shown) [Compound 85, 1,5,5-Trimethyl-2-phenyl-3-[1-pyridin-2-yl-methylidene]-piperidin-4-one] | (++) (5-8 fold) | (+) (21-40%) |
| COc1cc(C2C(=Cc3ccccn3)C(=O)C(C)(C)CN2Cc2ccco2)cc(OC)c1OC (stereo not shown) [Compound 90, 1-Furan-2-ylmethyl-5,5-dimethyl-3-[1-pyridin-2-yl-methylidene]-2-(3,4,5-trimethoxy-phenyl)-piperidin-4-one] | (+) (2-4 fold) | (++) (41-60%) |
| O=C1C(=Cc2cccc(N3CCOCC3)n2)C(=O)N(Cc2ccccc2)CC1c1ccccc1 (stereo not shown) [Compound 103, 1-Benzyl-3-[1-(6-morpholin-4-yl-pyridin-2-yl)-methylidene]-5-phenyl-piperidine-2,4-dione] | (+) (2-4 fold) | (+) (21-40%) |
